Like-named read-outs stand apart in the source and are kept apart here.
Experiments:
human CB1 receptors = target: T1, human CB1 receptors (Homo sapiens, UniProt P21554); experiment: functional cAMP assay, CHO cells expressing human CB1 receptors; type: cell-based
T1 construct: expressed in transfected cells; host or cells: CHO cells
Protocol: (§1) CHO cells expressing human CB1 or CB2 receptors are seeded 17-24 hours prior to the experiment 50.000 cells per well in a black 96 well plate with flat clear bottom (Corning Costar #3904) in DMEM (Invitrogen No. 31331), lx HT supplement, with 10% fetal calf serum and incubated at 5% CO2 and 37° C. in a humidified incubator. The growth medium was exchanged with Krebs Ringer Bicarbonate buffer with 1 mM IBMX and incubated at 30° C. for 30 min. Compounds were added to a final assay volume of 100 μl and incubated for 30 min at 30° C. Using the cAMP-Nano-TRF detection kit the assay (Roche Diagnostics) was stopped by the addition of 50 μl lysis reagent (Tris, NaCl, 1.5% Triton X100, 2.5% NP40, 10% NaN3) and 50 μl detection solutions (20 μM mAb Alexa700-cAMP 1:1, and 48 μM Ruthenium-2-AHA-cAMP) and shaken for 2 h at room temperature. The time-resolved energy transfer is measured by a TRF reader (Evotec Technologies GmbH), equipped with a ND:YAG laser as excitation source. The plate is measured twice with the excitation at 355 nm and at the emission with a delay of 100 ns and a gate of 100 ns, total exposure time 10 s at 730 (bandwidth 30 nm) or 645 nm (bandwidth 75 nm), respectively. The FRET signal is calculated as follows: FRET=T730-Alexa730-P(T645-B645) with P=Ru730-B730/Ru645-B645, where T730 is the test well measured at 730 nM, T645 is the test well measured at 645 nm, B730 and B645 are the buffer controls at 730 nm and 645 nm, respectively. cAMP content is determined from the function of a standard curve spanning from 10 μM to 0.13 nM cAMP.
(§2) EC50 values were determined using Activity Base analysis (ID Business Solution, Limited). The EC50 values for a wide range of cannabinoid agonists generated from this assay were in agreement with the values published in the scientific literature.

human CB2 receptors = target: T2, human CB2 receptors (Homo sapiens, UniProt P34972); experiment: functional cAMP assay, CHO cells expressing human CB2 receptors; type: cell-based
T2 construct: expressed in transfected cells; host or cells: CHO cells
T2 sequence (P34972 whole entry): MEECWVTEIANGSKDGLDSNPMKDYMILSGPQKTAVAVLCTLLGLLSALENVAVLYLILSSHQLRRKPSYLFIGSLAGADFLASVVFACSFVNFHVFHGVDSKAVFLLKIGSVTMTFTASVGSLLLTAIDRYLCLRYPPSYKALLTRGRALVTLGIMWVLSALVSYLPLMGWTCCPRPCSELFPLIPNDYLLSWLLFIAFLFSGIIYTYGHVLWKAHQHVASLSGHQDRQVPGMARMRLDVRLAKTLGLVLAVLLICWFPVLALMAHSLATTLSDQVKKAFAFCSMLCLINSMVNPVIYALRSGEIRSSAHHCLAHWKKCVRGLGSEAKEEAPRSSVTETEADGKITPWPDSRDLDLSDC
Protocol: as §1, §2

[1] = human EC50, functional cAMP assay, CHO cells expressing human CB2, read-out: EC50:CB2

T1 sequence (P21554 whole entry): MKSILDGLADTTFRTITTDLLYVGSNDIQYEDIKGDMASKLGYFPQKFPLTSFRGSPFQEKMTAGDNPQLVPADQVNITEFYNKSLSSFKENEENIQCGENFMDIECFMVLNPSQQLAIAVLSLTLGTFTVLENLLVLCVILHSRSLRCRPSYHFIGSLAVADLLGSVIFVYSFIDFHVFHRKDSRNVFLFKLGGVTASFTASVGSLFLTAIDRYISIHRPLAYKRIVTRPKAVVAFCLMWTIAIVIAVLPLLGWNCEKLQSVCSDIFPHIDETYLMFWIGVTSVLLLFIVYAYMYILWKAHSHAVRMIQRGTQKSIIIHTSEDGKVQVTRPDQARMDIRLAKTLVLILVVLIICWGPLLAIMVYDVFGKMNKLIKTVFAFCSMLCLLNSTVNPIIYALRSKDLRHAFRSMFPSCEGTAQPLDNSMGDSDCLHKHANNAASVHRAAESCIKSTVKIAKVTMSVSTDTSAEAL

## CC(C)(C)c1nc(N2CC3(COC3)C2)c2ccn([C@H]3CCOC3)c2n1 [Example 16, 6-[2-tert-butyl-7-[(3S)-oxolan-3-yl]pyrrolo[2,3-d]pyrimidin-4-yl]-2-oxa-6-azaspiro[3.3]heptane]
Human CB1 receptors
  EC50: > 10000 nM
Human CB2 receptors
  EC50: 78.7 nM

## CC(C)(C)c1nc(N2CCC(F)(F)C2)c2ccn(Cc3ccccc3Cl)c2n1 [Example 1, 2-tert-butyl-7-[(2-chlorophenyl)methyl]-4-(3,3-difluoropyrrolidin-1-yl)pyrrolo[2,3-d]pyrimidine]
Human CB1 receptors
  EC50: > 10000 nM
Human CB2 receptors
  EC50: 10.1 nM

## CC(C)(C)c1nc(N2CCC(O)C2)c2ccn(Cc3ccccc3S(C)(=O)=O)c2n1 (centres unmarked) [Example 26, 1-[2-tert-butyl-7-[(2-methylsulfonylphenyl)methyl]pyrrolo[2,3-d]pyrimidin-4-yl]pyrrolidin-3-ol]
Human CB1 receptors
  EC50: > 10000 nM
Human CB2 receptors
  EC50: 16.8 nM

## Cc1noc(Cn2ccc3c(N4CCC(F)(F)C4)nc(C(C)(C)C)nc32)n1 [Example 8, 5-[[2-tert-butyl-4-(3,3-difluoropyrrolidin-1-yl)pyrrolo[2,3-d]pyrimidin-7-yl]methyl]-3-methyl-1,2,4-oxadiazole]
Human CB1 receptors
  EC50: > 10000 nM
Human CB2 receptors
  EC50: 49.6 nM

## CC(C)(C)c1nc(N2CC3(COC3)C2)c2ccn(Cc3ccccc3Cl)c2n1 [Example 14, 6-[2-tert-butyl-7-[(2-chlorophenyl)methyl]pyrrolo[2,3-d]pyrimidin-4-yl]-2-oxa-6-azaspiro[3.3]heptane]
Human CB1 receptors
  EC50: > 10000 nM
Human CB2 receptors
  EC50: 15.3 nM

## CC(C)(C)c1nc(N2CCC(O)C2)c2ccn(Cc3cccnc3Cl)c2n1 (centres unmarked) [Example 29, 1-[2-tert-butyl-7-[(2-chloropyridin-3-yl)methyl]pyrrolo[2,3-d]pyrimidin-4-yl]pyrrolidin-3-ol]
Human CB1 receptors
  EC50: > 10000 nM
Human CB2 receptors
  EC50: 3.6 nM

## CC(=O)OC1CCN(c2nc(C(C)(C)C)nc3c2ccn3Cc2nnnn2C)C1 (centres unmarked) [Example 35, [1-[2-tert-butyl-7-[(1-methyltetrazol-5-yl)methyl]pyrrolo[2,3-d]pyrimidin-4-yl]pyrrolidin-3-yl]acetate]
Human CB1 receptors
  EC50: > 10000 nM
Human CB2 receptors; [1]
  EC50: 278 nM

## Cn1nnnc1Cn1ccc2c(N3CC4(COC4)C3)nc(C(C)(C)C)nc21 [Example 50, 6-[2-tert-butyl-7-[(1-methyltetrazol-5-yl)methyl]pyrrolo[2,3-d]pyrimidin-4-yl]-2-oxa-6-azaspiro[3.3]heptane]
Human CB1 receptors
  EC50: > 10000 nM
Human CB2 receptors; [1]
  EC50: 531 nM

## Cc1noc(Cn2ccc3c(N4CC5(COC5)C4)nc(C(C)(C)C)nc32)n1 [Example 15, 6-[2-tert-butyl-7-[(3-methyl-1,2,4-oxadiazol-5-yl)methyl]pyrrolo[2,3-d]pyrimidin-4-yl]-2-oxa-6-azaspiro[3.3]heptane]
Human CB1 receptors
  EC50: > 10000 nM
Human CB2 receptors; [1]
  EC50: 747 nM

## CC(C)(C)c1nc(N2CC3(COC3)C2)c2ccn(Cc3ccccc3S(C)(=O)=O)c2n1 [Example 19, 6-[2-tert-butyl-7-[(2-methylsulfonylphenyl)methyl]pyrrolo[2,3-d]pyrimidin-4-yl]-2-oxa-6-azaspiro[3.3]heptane]
Human CB1 receptors
  EC50: > 10000 nM
Human CB2 receptors
  EC50: 14.6 nM

## Cc1nonc1Cn1ccc2c(N3CC[C@H](O)C3)nc(C(C)(C)C)nc21 [Example 48, (3S)-1-[2-tert-butyl-7-[(4-methyl-1,2,5-oxadiazol-3-yl)methyl]pyrrolo[2,3-d]pyrimidin-4-yl]pyrrolidin-3-ol]
Human CB1 receptors
  EC50: > 10000 nM
Human CB2 receptors
  EC50: 8.5 nM

## CC(C)(C)c1nc(N2CC3(COC3)C2)c2ccn(Cc3ccc(F)cc3Cl)c2n1 [Example 18, 6-[2-tert-butyl-7-[(2-chloro-4-fluorophenyl)methyl]pyrrolo[2,3-d]pyrimidin-4-yl]-2-oxa-6-azaspiro[3.3]heptane]
Human CB1 receptors
  EC50: > 10000 nM
Human CB2 receptors
  EC50: 42.5 nM

## CC(C)(C)c1nc(N2CC[C@H](O)C2)c2ccn(Cc3ncccc3Cl)c2n1 [Example 47, (3S)-1-[2-tert-butyl-7-[(3-chloropyridin-2-yl)methyl]pyrrolo[2,3-d]pyrimidin-4-yl]pyrrolidin-3-ol]
Human CB1 receptors
  EC50: > 10000 nM
Human CB2 receptors
  EC50: 5.8 nM
